Paper PMC7178755 (Toxicology and applied pharmacology, 2019)

Test: Plasma toxicokinetics after single intravenous administration in rats
Type: in vivo, Harlan Sprague Dawley rats
Settings: for AUC(0-inf) / Cmax / Vd: Hsd:Sprague Dawley SD, rat, iv, 34 mg/kg
[1] = free BPAF, female rats, 34 mg/kg IV, mean (SE)
[2] = free BPAF, male rats, 34 mg/kg IV, mean (SE)

Oc1ccc(C(c2ccc(O)cc2)(C(F)(F)F)C(F)(F)F)cc1 [BPAF, Bisphenol AF]
AUC(0-inf) (female): 45300 ng·h/mL
Cmax (female): 71.5 µg/mL
Vd (female): 0.697 L/kg
Cl1 [1]: 0.751 (0.118) L/h/kg
K12 [1]: 0.0656 (0.0398) 1/h
K21 [1]: 0.141 (0.0339) 1/h
V1 [1]: 0.476 (0.115) L/kg
V2 [1]: 0.222 (0.0922) L/kg
Cl1 [2]: 0.753 (0.102) L/h/kg
Cl2 [2]: 0.0225 (0.00797) L/h /kg
K12 [2]: 0.0503 (0.0151) 1/h
K21 [2]: 0.0892 (0.0147) 1/h
V1 [2]: 0.448 (0.0811) L/kg
V2 [2]: 0.253 (0.0785) L/kg
AUC(0-inf) (male): 45200 ng·h/mL
Cmax (male): 75.9 µg/mL
Vd (male): 0.7 L/kg
